Measurements published in US10723706B2, “Perk inhibitors and uses thereof in treating diseases associated with aggregation-prone proteins” (Ramot at Tel-Aviv University Ltd., priority 2016, dated 2020).
“Also recorded” adds a separate entry of the source.

Experiments:
Assay type in all cases: in vivo, mouse
[1] = Weight evaluation after pump implantation; conditions: TG and WT mice, 7 weeks after pump implantation, 1 mg/kg for 28 days
Procedure: (§1) For the therapeutic assessment of MK-28 delivery, Alzet pumps model 1004, with a rate of 0.11 μl/hour and 28 days compound delivery were used. Five groups of mice were studied: (1) Transgenic (TG) treated with MK-28, (2) TG without treatment (pumps with vehicle), (3) Wild-type (WT) treated with MK-28, (4) WT without treatment (pumps with vehicle), (5) WT without pumps.
(§2) Alzet pumps were implanted at 4 weeks of age and MK-28 was administered at 1 mg/kg with continuous dosing for 28 days. This concentration is in a typical clinical dose range. The mice's motor function and coordination were tested by Rotarod, and limb clasping, ledge, gait and kyphosis were also tested. Vocalization tests were also performed and survival was assessed. Tests were performed in two independent blind experiments.

R6/2 transgenic mice [2] = experiment: Rotarod test in R6/2 HD model mice; conditions: 1 mg/kg continuous for 28 days
Procedure: Motor activity was assessed by the rotarod test using the San Diego Instrument, Rotor-Rod (San Diego Instruments, CA, USA) (0-25 RPM). R6/2 mice and controls were tested every week after pump transplantation. Each test consisted of 3 consecutive measurements of 5 minutes on 4 rpm, 60 minutes of rest, 3 times 0-40 rpm. The latency to fall was recorded.
as §1
Alzet pumps were implanted at 4 weeks of age and MK-28 was administered at 1 mg/kg with continuous dosing for 28 days. This concentration is in a typical clinical dose range. […] Vocalization tests were also performed and survival was assessed. […]
Rotarod analysis was performed by assessing the maximum performance of each animal during three consecutive trials at different time points. The analysis evaluated the motor behavior of animals starting one week after the pump implantation (equivalent to the mice fifth week of life) and ending by seven weeks after first MK-28 delivery.

[3] = Pharmacokinetics and blood brain barrier penetration, LC/MS/MS; conditions: WT mice, 10 mg/kg IP
Procedure: FIG. 5 Analysis of Pharmacokinetics (PK) and blood brain barrier (BBB) penetration was done in WT mice using a method based on LC/MS/MS.
Pharmacokinetics (PK) and blood brain barrier (BBB) penetration were analyzed in WT mice.

R6/2 transgenic mice [4] = experiment: Survival of R6/2 mice
Procedure: Animals were treated as described in FIGS. 7-9. Transgenic mice receiving MK-28 (blue) or vehicle (red) were analyzed for mice survival (n=13/group). Gehan-Breslow-Wilcoxon Test for comparisons of Kaplan-Meier survival curves indicated a significant increase in the survival of MK-28 treated mice compared to untreated littermates (median survival 97 and 89 days, respectively, p=0.0469). Ratio 1.887, 95% CI of ratio 0.7726 to 4.611.
as §2

CN(/N=C\c1ccc(O)c(O)c1)c1nc(-c2ccccc2)cc(-c2ccccc2)n1 [Compound 3, 2-{N-methyl-N′-(3,4-dihydroxybenzylidene)hydrazinyl}-4,6-diphenylpyrimidine]
weight versus vehicle [1]: no significant differences | Rotarod motor performance of TG mice versus untreated TG (R6/2 transgenic mice [2]; R6/2 TG mice, p<0.05, listed as MK-28, 1 mg/kg): significant improvement in general motor performance; also recorded: significant improvement in motor function | Rotarod motor performance of WT mice (R6/2 transgenic mice [2]; WT mice): no compromised motor performance | BBB penetration, peak brain concentration ([3]; brain): 57 ng/mL | T1/2 in brain ([3]; brain): 80 min | time of peak brain concentration ([3]; brain): 40 min | T1/2 in plasma ([3]; plasma): 30 min | peak plasma concentration ([3]; plasma): 105 ng/mL | time of peak plasma concentration ([3]; plasma): 40 min | Kp at 40 minutes ([3]; mouse, brain, read-out: BBB penetration peak as percent of the concentration in plasma): > 0.5 | delay of death initiation versus vehicle (R6/2 transgenic mice [4]; R6/2 TG mice): ~10 days | increase in median survival versus untreated TG (R6/2 transgenic mice [4]; R6/2 TG mice): 8 days | median survival (R6/2 transgenic mice [4]; R6/2 TG mice treated age weeks 4 to 8, n=13/group, p=0.0469): 97 days | Ratio, comparison of Kaplan-Meier survival curves (R6/2 transgenic mice [4]; R6/2 TG mice, 95% CI of ratio 0.7726 to 4.611): 1.887
